# Where no end group is shown, it is not given here. [ ]: non-standard residue; d: D form. pGlu = O=C1CC[C@@H](C(=O)O)N1
# Tested on: peptide of SEQ ID NO: 1
# Experiment: Titer of antibody to the peptide of SEQ ID NO: 1 by peptide-based ELISA in serum of immunised mice
# Type: in vivo
# Conditions: male C57B1 mice; three subcutaneous injections of 100 μg peptide + 100 μg calcium phosphate nanoparticles at 3-week intervals; two weeks after the last injection
# Method: Four male mice (8-week-old, C57B1) were given, three subcutaneous injections of vaccine composition comprising 100 μg of the peptide SEQ ID NO: 1 and 100 μg of calcium phosphate nanoparticles at 3-week intervals. As controls, an additional four mice received the vehicle. Two weeks after the last injection, the titer of antibody to the peptide of SEQ ID NO: 1 was assessed by the peptide-based enzyme-linked immunosorbent assay (ELISA). Samples were run in triplicate on ELISA plates coated with the peptide of the SEQ ID NO: 1, which was used as the immunogen. The peptide was bound in solid phase on high binding 96 well plates. Serum was diluted 1:500 and then serially diluted to a final dilution of 1:64,000. Detection of the antibody was obtained using an HRP conjugated secondary antibody (1:5,000) and TMB micro well peroxidase substrate.
# Four male mice (8-week-old, C57B1) were given three intraperitoneal injections of vaccine composition of example 3 at 3-week intervals. As controls, an additional four mice received the vehicle. Two weeks after the last injection, the titer of antibody to the peptide of SEQ ID NO: 1 was assessed by the peptide-based enzyme-linked immunosorbent assay (ELISA) as described in the example 4. […] Thus, the administering vaccine compositions of the invention elicited protective immunity in animals against endogenous peptide of SEQ ID NO: 1.
substance,measurement,value
pGlu-Pro-Pro-Gly-Gly-Ser-Lys-Val-Ile-Leu-Phe ([pGlu]PPGGSKVILF; listed as Homo sapiens) [peptide SEQ ID NO: 1],geometric mean titer of anti-SEQ ID NO: 1 antibodies in serum,"about 70,000"

# Reference: US20130078268A1, “VACCINE COMPOSITIONS AND METHODS OF USE THEREOF” (priority 2010, published 2013)
